Data taken from patent publication US7202261B2, “Calcilytic compounds” (NPS Pharmaceuticals, Inc., priority 1996, dated 2007).
Counter-ions that a name gives are not always drawn.

Each compound was assayed against T1, human calcium receptor (Homo sapiens, UniProt P41180) (assay: Calcium Receptor Inhibitor Assay). Conditions: not given.
T1 construct: expressed in transfected cells
T1 sequence (P41180 20-1078): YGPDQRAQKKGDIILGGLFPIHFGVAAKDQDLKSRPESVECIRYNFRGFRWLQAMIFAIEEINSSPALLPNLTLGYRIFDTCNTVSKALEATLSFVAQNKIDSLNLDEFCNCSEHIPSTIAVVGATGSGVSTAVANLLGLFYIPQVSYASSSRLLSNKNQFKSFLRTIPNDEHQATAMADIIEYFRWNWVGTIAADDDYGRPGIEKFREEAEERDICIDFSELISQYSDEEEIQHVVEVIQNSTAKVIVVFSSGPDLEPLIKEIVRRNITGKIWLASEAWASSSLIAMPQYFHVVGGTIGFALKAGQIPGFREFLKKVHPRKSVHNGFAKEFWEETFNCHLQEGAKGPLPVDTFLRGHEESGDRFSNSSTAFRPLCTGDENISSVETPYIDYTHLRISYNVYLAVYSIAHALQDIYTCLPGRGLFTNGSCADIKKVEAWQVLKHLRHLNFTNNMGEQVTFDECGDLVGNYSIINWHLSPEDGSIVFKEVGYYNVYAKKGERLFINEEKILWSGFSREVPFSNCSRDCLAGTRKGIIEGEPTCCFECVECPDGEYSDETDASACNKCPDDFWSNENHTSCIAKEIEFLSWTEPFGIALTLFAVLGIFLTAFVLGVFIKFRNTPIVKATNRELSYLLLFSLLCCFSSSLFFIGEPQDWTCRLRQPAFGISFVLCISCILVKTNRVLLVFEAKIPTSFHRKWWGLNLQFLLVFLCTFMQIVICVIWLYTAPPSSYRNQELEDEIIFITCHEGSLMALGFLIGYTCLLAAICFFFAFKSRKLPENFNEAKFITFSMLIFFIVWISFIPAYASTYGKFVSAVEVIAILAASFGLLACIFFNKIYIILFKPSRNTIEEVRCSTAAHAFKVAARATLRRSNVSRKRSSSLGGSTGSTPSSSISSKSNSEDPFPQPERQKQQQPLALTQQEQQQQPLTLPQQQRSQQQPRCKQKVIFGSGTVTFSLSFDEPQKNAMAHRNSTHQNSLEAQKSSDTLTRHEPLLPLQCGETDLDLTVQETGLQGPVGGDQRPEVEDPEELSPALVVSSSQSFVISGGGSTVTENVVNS
Format: cell-based
Procedure: This example illustrates the use of the Calcium Receptor Inhibitor Assay. […] Res. 10 Suppl. […] Intracellular Ca^2+ was measured using fluo-3, a fluorescent calcium indicator.
The procedure was as follows:
1. Cells were maintained in T-150 flasks in selection media (DMEM supplemented with 10% fetal bovine serum and 200 μg/mL hygromycin B), under 5% CO2:95% air at 37° C. and were grown up to 90% confluency.
2. The medium was decanted and the cell monolayer was washed twice with phosphate-buffered saline (PBS) kept at 37° C. After the second wash, 6 mL of 0.02% EDTA in PBS was added and incubated for 4 minutes at 37° C. Following the incubation, cells were dispersed by gentle agitation.
3. Cells from 2 or 3 flasks were pooled and pelleted (100×g). The cellular pellet was resuspended in […] of SPF-PCB+ and pelleted again by centrifugation. This washing was done twice.
SPF-PCB was made up and stored at 4° C. On the day of use, SPF-PCB was supplemented with 1 mg/mL of D-glucose and 1 mM CaCl2 and then split into two fractions. To one fraction, bovine serum albumin (BSA; fraction V, ICN) was added at 5 mg/mL (SPF-PCB+). This buffer was used for washing, loading and maintaining the cells. The BSA-free fraction was used for diluting the cells in the cuvette for measurements of fluorescence.
5. Following the incubation period, the cells were pelleted by centrifugation. The resulting pellet was washed with SPF-PCB+. After this washing, cells were resuspended in SPF-PCB+ at a density of 1–2×10^6 cells/mL.
6. For recording fluorescent signals, 300 μL of cell suspension were diluted in 1.2 mL of SPF buffer containing 1 mM CaCl2 and 1 mg/mL of D-glucose. Measurements of fluorescence were performed at 37° C. with constant stirring using a spectrofluorimeter. […] To calibrate fluorescence signals, digitonin (5 mg/mL in ethanol) was added to obtain Fmax, and the apparent Fmin was determined by adding Tris-EGTA (2.5 M Tris-Base, 0.3 M EGTA).
7. To determine the potential calcilytic activity of test compounds, cells were incubated with test compound (or vehicle as a control) for 90 seconds before increasing the concentration of extracellular Ca^2+ from 1 to 2 mM. Calcilytic compounds were detected by their ability to block, in a concentration-dependent manner, increases in the concentration of intracellular Ca^2+ elicited by extracellular Ca^2+.

| Compound | IC50 [µM] |
| --- | --- |
| COc1ccc(CC(C)(C)NCc2ccccc2)cc1 [Compound 34, N-(Benzyl)-1,1-dimethyl-2-(4-methoxyphenyl)ethylamine] | > 50 |
| COc1ccc(CC(C)(C)NCC(O)COC2CCCCC2C#N)cc1 (stereo not shown) [Compound 131, N-[2-hydroxy-3-(2-cyano-cyclohexyloxy)propyl-1,1-dimethyl-2-(4-methoxyphenyl)ethylamine Hydrochloride] | < 1 |
| COc1ccc(CC(C)(C)NCC(O)COC(C)C)cc1 (stereo not shown) [Compound 27, N-(2-Hydroxy-3-isoproproxypropyl)-1,1-dimethyl-2-(4-methoxyphenyl)ethylamine] | < 10 |
| COc1ccc(CC(C)(C)NCC(O)Cc2ccccc2)cc1 (stereo not shown) [Compound 37, N-(2-Hydroxy-3-phenylpropyl)-1,1-dimethyl-2-(4-methoxyphenyl)ethylamine Hydrochloride] | < 10 |
| COc1ccc(CC(C)(C)NCC(O)COC2CCCCC2)cc1 (stereo not shown) [Compound 93, N-(2-hydroxy-3-cyclohexoxypropyl)-1,1-dimethyl-2-(4-methoxyphenyl)ethylamine] | < 10 |
| C=CCCCCCCC(O)CNC(C)(C)Cc1ccc(OC)cc1 (stereo not shown) [Compound 71, N-(2-Hydroxydec-9-enyl)-1,1-dimethyl-2-(4-methoxyphenyl)ethylamine] | < 10 |
| CCCCCCOCC(O)CNC(C)(C)Cc1ccc(OC)cc1 (stereo not shown) [Compound 66, N-(2-Hydroxy-3-hexanoxypropyl)-1,1-dimethyl-2-(4-methoxyphenyl)ethylamine] | < 10 |
| COc1ccc(CC(C)(C)NCC(O)CCCC[N+](=O)[O-])cc1 (racemic) [Compound 164, (R/S)-1-nitro-5-hydroxy-6-[1,1-dimethyl-2-(4-methoxyphenyl)]hexane] | < 50 |

Same assay, conditions: HEK 293 4.0–7 cells stably expressing the human calcium receptor; fluo-3; read-out: IC50 for blocking increases of intracellular Ca2+ elicited by extracellular Ca2+

| Compound | IC50 [µM] |
| --- | --- |
| CCc1ccccc1OCC(O)CNC(C)(C)Cc1ccc(OC)cc1 (stereo not shown) [Compound 151, N-[2-hydroxy-3-(2-ethylphenoxy)propyl]-1,1-dimethyl-2-(4-methoxyphenyl)ethylamine Hydrochloride] | < 1 |
| COc1ccc(CC(C)(C)NCC(O)COc2ccc(Cl)cc2Cl)cc1 (stereo not shown) [Compound 138, N-[2-hydroxy-3-(2,4-dichlorophenoxy)propyl]-1,1-dimethyl-2-(4-methoxyphenyl)ethylamine Hydrochloride] | < 1 |
| COc1ccc(CC(C)(C)NCC(O)COc2ccc(-c3ccccc3)cc2)cc1 (stereo not shown) [Compound 62, N-[2-Hydroxy-3-(4-phenylphenoxy)propyl]-1,1-dimethyl-2-(4-methoxyphenyl)ethylamine] | > 50 |
| COc1ccc(CC(C)(C)NC[C@@H](O)COc2ccccc2C#N)cc1 [Compound 122, (R)—N-[2-Hydroxy-3-(2-cyanophenoxy)propyl]-1,1-dimethyl-2-(4-methoxyphenyl)ethylamine Hydrochloride] | < 1 |
| COc1ccc(CC(C)(C)NC[C@@H](O)COc2cccc(Cl)c2Cl)cc1 [Compound 115, (R)—N-[2-Hydroxy-3-(2,3-dichlorophenoxy)propyl]-1,1-dimethyl-2-(4-methoxyphenyl)ethylamine Hydrochloride] | < 1 |
| COc1ccc(CC(C)(C)NCC(O)COc2ccc(C#N)cc2)cc1 (stereo not shown) [Compound 161, N-(2-hydroxy-3-(4-cyanophenoxy)propyl]-1,1-dimethyl-2-(4-methoxyphenyl)ethylamine Hydrochloride] | < 10 |
| COc1ccc(CC(C)(C)NCC(O)COc2cccc(C(C)C)c2)cc1 (stereo not shown) [Compound 146, N-[2-hydroxy-3-(3-iso-propylphenoxy)propyl]-1,1-dimethyl-2-(4-methoxyphenyl)ethylamine Hydrochloride] | < 1 |
| CC(C)(Cc1ccccc1)NCC(O)COc1ccccc1 (stereo not shown) [Compound 56, N-(2-Hydroxy-3-phenoxypropyl)-1,1-dimethyl-2-phenylethylamine Hydrochloride] | < 50 |
| CC(C)(Cc1ccc(OC(F)(F)F)cc1)NCC(O)COc1ccccc1 (stereo not shown) [Compound 111, N-(2-Hydroxy-3-phenoxypropyl)-1,1-dimethyl-2-(4-trifluoromethoxyphenyl)ethylamine Hydrochloride] | < 10 |
| COc1ccc(CC(C)(C)NCC(O)COc2ccc(OC)c(OC)c2)cc1 (stereo not shown) [Compound 132, N-[2-hydroxy-3-(3,4-dimethoxyphenoxy)propyl]-1,1-dimethyl-2-(4-methoxyphenyl)ethylamine Hydrochloride] | < 10 |
| COc1ccc(CC(C)(C)NCC(O)COc2ccc(C(F)(F)F)cc2)cc1 (stereo not shown) [Compound 51, N-[2-Hydroxy-3-(4-trifluoromethylphenoxy)propyl]-1,1-dimethyl-2-(4-methoxyphenyl)ethylamine Hydrochloride] | < 1 |
| COc1ccc(CC(C)(C)NCC(O)COc2ccc(NC(C)=O)cc2)cc1 (stereo not shown) [Compound 58, N-[2-hydroxy-3-(4-acetamidophenoxy)propyl]-1,1-dimethyl-2(4-methoxyphenyl)ethylamine] | > 50 |
| CCc1ccc(CC(C)(C)NCC(O)COc2ccccc2)cc1 (stereo not shown) [Compound 110, N-(2-Hydroxy-3-phenoxypropyl)-1,1-dimethyl-2-(4-ethylphenyl)ethylamine Hydrochloride] | < 10 |
| CCOc1cccc(OCC(O)CNC(C)(C)Cc2ccc(OC)cc2)c1 (stereo not shown) [Compound 147, N-[2-hydroxy-3-(3-ethoxyphenoxy)propyl]-1,1-dimethyl-2-(4-methoxyphenyl)ethylamine Hydrochloride] | < 10 |
| COc1ccc(CC(C)(C)NCC(O)COc2cc(Cl)ccc2Cl)cc1 (stereo not shown) [Compound 140, N-[2-hydroxy-3-(2,5-dichlorophenoxy)propyl]-1,1-dimethyl-2-(4-methoxyphenyl)ethylamine Hydrochloride] | < 1 |
| COc1ccc(CC(C)(C)NCC(O)COc2ccccc2)c(F)c1 (stereo not shown) [Compound 129, N-(2-hydroxy-3-phenoxypropyl)-1,1-dimethyl-2-(2-fluoro-4-methoxyphenyl)ethylamine Hydrochloride] | < 1 |
| COc1ccc(CC(C)(C)NCC(O)COCCCCc2ccccc2)cc1 (stereo not shown) [Compound 127, N-[2-hydroxy-3-(4-phenyl-butanoxy)propyl]-1,1-dimethyl-2-(4-methoxyphenyl)ethylamine] | < 1 |
| COc1ccc(CC(C)(C)NCC(O)COc2ccccc2C#N)cc1 (stereo not shown) [Compound 142, N-[2-hydroxy-3-(2-cyanophenoxy)propyl]-1,1-dimethyl-2-(4-methoxyphenyl)ethylamine Hydrochloride] | < 1 |
| COc1ccc(CC(C)(C)NCC(O)COc2c(Cl)cccc2Cl)cc1 (stereo not shown) [Compound 155, N-[2-hydroxy-3-(2,6-dichlorophenoxy)propyl]-1,1-dimethyl-2-(4-methoxyphenyl)ethylamine Hydrochloride] | < 10 |
| COc1ccc(CC(C)(C)NCC(O)COc2cccc(OC)c2C#N)cc1 (stereo not shown) [Compound 118, N-[2-Hydroxy-3-(2-cyano-3-methoxyphenoxy)propyl]-1,1-dimethyl-2-(4-methoxyphenyl)ethylamine Hydrochloride] | < 1 |
